Assay results published in US20090239840A1, “AMINO SUBSTITUTED DIARYL[a,d]CYCLOHEPTENE ANALOGS AS [sequence] AGONISTS AND METHODS OF TREATMENT OF NEUROPSYCHIATRIC DISORDERS” (ACADIA PHARMACEUTICALS, INC., priority 2003, published 2009).
Like-named read-outs stand apart in the source and are kept apart here.

Tests used:
muscarinic M1 receptor = target: T1, muscarinic M1 receptor (Homo sapiens, UniProt P11229); assay: R-SAT functional screen, M1; format: cell-based; settings: for Emax: read-out: M1 eff (efficacy)
T1 construct: expressed in transfected cells
T1 sequence (P11229 1-460): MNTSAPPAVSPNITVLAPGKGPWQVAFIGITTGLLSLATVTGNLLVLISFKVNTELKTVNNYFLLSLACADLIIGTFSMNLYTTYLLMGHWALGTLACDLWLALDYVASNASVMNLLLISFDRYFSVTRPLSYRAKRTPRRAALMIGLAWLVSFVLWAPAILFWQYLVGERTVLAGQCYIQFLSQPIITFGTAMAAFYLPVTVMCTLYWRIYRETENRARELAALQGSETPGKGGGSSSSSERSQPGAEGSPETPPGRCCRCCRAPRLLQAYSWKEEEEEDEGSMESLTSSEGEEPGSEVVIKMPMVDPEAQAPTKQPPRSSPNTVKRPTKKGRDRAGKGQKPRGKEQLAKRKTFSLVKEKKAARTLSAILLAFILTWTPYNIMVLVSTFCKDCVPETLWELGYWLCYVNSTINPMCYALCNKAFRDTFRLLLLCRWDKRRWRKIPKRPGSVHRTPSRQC
Description: (§1) Several compounds disclosed herein were evaluated for activity at muscarinic receptors using Receptor Selection and Amplification Technology (R-SAT) as described in U.S. Pat. No. 5,707,798, the disclosure of which is incorporated herein by reference in its entirety. The efficacy (eff) and potency (expressed as pEC50) of these compounds are presented in Table 1 at M1, M2, and M3 receptors.

muscarinic M2 receptor = target: T2, muscarinic M2 receptor (Homo sapiens, UniProt P08172); assay: R-SAT functional screen, M2; format: cell-based; settings: for Emax: read-out: M2 eff (efficacy)
T2 construct: expressed in transfected cells
T2 sequence (P08172 1-466): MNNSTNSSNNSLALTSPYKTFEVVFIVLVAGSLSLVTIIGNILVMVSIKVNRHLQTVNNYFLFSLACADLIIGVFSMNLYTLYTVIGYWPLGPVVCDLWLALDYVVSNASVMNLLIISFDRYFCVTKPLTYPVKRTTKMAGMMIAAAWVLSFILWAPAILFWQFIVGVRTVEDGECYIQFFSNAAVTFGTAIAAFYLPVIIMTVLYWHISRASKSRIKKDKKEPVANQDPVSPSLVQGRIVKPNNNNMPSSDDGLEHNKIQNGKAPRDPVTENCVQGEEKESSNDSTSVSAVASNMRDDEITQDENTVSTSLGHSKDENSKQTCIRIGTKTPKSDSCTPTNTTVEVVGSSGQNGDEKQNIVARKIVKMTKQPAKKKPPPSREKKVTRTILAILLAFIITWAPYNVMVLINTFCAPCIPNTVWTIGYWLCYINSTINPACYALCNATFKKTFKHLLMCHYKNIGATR
Description: as §1

muscarinic M3 receptor = target: T3, muscarinic M3 receptor (Homo sapiens, UniProt P20309); assay: R-SAT functional screen, M3; format: cell-based
T3 construct: expressed in transfected cells
Excerpt: The term “modulate” refers to the ability of a compound disclosed herein to alter the function of a muscarinic receptor. A modulator may activate the activity of a muscarinic receptor, may activate or inhibit the activity of a muscarinic receptor depending on the concentration of the compound exposed to the muscarinic receptor, or may inhibit the activity of a muscarinic receptor. The term “modulate” also refers to altering the function of a muscarinic receptor by increasing or decreasing the probability that a complex forms between a muscarinic receptor and a natural binding partner. A modulator may increase the probability that such a complex forms between the muscarinic receptor and the natural binding partner, may increase or decrease the probability that a complex forms between the muscarinic receptor and the natural binding partner depending on the concentration of the compound exposed to the muscarinic receptor, and or may decrease the probability that a complex forms between the muscarinic receptor and the natural binding partner. In some embodiments, modulation of the muscarinic receptor may be assessed using Receptor Selection and Amplification Technology (R-SAT) as described in U.S. Pat. No. 5,707,798, the disclosure of which is incorporated herein by reference in its entirety.
as §1

[1] = tested on: hyperactivity induced by MK-801; assay: MK-801 induced hyperactivity mouse model; format: in vivo; settings: mice, salts of the compounds
Description: (§2) Five of the compounds listed in Table 2 were tested in an in vivo assay predictive of antipsychotic activity. Salts of these compounds where administered to mice having hyperactivity induced by amphetamine or MK-801 administration. The compounds were administered both subcutaneously (sc) and orally (po).

[2] = tested on: hyperactivity induced by amphetamine; assay: Amphetamine induced hyperactivity mouse model; format: in vivo; settings: mice, salts of the compounds
Description: as §2

novel object recognition = assay: Novel object recognition (NOR) assay; format: in vivo; settings: mice, dose approx. ID75 in MK-801 hyperactivity assay
Description: Salts of the compounds were administered to mice at one hour post-training (a time-point at which animals normally behaviorally discriminate between novel and familiar objects) and two hours post-training (a time-point at which these animals normally no longer discriminate between objects). Doses were selected to correspond to the approximate ID75 value in the MK-801 hyperactivity assay.

[3] = R-SAT, read-out: M1 pEC50 (converted)
[4] = R-SAT, read-out: M2 pEC50 (converted)

T3 sequence (P20309 whole entry): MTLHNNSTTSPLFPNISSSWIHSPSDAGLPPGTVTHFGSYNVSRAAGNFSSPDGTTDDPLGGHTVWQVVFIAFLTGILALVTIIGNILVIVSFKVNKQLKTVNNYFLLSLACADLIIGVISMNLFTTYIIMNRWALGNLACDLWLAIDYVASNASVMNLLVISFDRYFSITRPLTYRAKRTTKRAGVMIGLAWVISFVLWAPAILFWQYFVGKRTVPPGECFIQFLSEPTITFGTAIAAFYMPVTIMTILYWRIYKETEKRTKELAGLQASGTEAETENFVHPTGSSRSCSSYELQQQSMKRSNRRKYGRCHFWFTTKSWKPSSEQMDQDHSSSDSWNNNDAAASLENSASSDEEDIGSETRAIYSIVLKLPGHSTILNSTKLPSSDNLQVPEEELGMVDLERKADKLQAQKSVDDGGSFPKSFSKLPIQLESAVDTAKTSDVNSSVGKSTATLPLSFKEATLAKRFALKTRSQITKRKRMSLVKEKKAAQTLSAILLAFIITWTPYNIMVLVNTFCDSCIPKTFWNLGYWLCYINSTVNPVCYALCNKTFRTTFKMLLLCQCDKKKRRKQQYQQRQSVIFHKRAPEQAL

SMILES	Emax (muscarinic M1 receptor; R-SAT) [%]	EC50 (muscarinic M1 receptor; [3]) [nM]	Emax (muscarinic M2 receptor; R-SAT) [%]	EC50 (muscarinic M2 receptor; [4]) [nM]	also measured
Cc1cccc2c1Nc1ccc(Cl)cc1N=C2N1CCNCC1 [8-Chloro-4-methyl-11-(piperazin-1-yl)-5H-dibenzo[b,e][1,4]diazepine]	92	63.1	162	1000	M3 eff (efficacy) (muscarinic M3 receptor): 16
Clc1cccc2c1C(N1CCNCC1)=Nc1cc(Br)ccc1N2 [8-Bromo-1-chloro-11-(piperazin-1-yl)-5H-dibenzo[b,e][1,4]diazepine]	66	126	105	2510	M3 eff (efficacy) (muscarinic M3 receptor): 4
Clc1ccc2c(c1)N=C(N1CCNCC1)c1cccc(Cl)c1N2 [4,8-Dichloro-11-(piperazin-1-yl)-5H-dibenzo[b,e][1,4]diazepine]	78	63.1	118	1000	M3 eff (efficacy) (muscarinic M3 receptor): 44; EC50 (muscarinic M3 receptor; read-out: M3 pEC50 (converted)): 158 nM
CN1CCN(C2=Nc3cc(Cl)ccc3Nc3ccccc32)CC1 [Clozapine, clozapine, reference compound]	–	–	–	–	MK-801 model (ID50 mg/kg po) ([1]; po): 0.6 mg/kg; MK-801 model (ID50 mg/kg sc) ([1]; sc): 0.5 mg/kg; Amphetamine model (ID50 mg/kg po) ([2]; po): 10 mg/kg; Amphetamine model (ID50 mg/kg sc) ([2]; sc): 1.4 mg/kg; NOR - 60 minutes post training (novel object recognition): not retained; NOR - 120 minutes post training (novel object recognition): not retained; NOR - 60 minutes post training (novel object recognition; listed as clozapine): abolished novel object recognition; NOR - 120 minutes post training (novel object recognition; listed as clozapine): cognitive impairing effects
Cc1ccc2c(c1)C(N1CCNCC1)=Nc1cc(Br)ccc1N2 [8-Bromo-2-methyl-11-(piperazin-1-yl)-5H-dibenzo[b,e][1,4]diazepine]	8	–	44	–	–
FC(F)(F)c1ccc2c(c1)N=C(N1CCNCC1)c1ccccc1N2 [11-(piperazin-1-yl)-8-trifluoromethyl-5H-dibenzo[b,e][1,4]diazepine]	53	316	131	3160	–
CCCCCCCCCc1ccc(C2=Nc3cc(Cl)ccc3Nc3ccccc32)cc1 [8-Chloro-11-(4-nonylphenyl)-5H-dibenzo[b,e][1,4]diazepine]	1	–	8	–	–
Fc1ccc2c(c1)N=C(N1CCCNCC1)c1ccccc1N2 [8-Fluoro-11-[1,4]diazepam-1-yl-5H-dibenzo[b,e][1,4]diazepine]	–	–	–	–	EC50 (muscarinic M1 receptor): 200 nM; Emax (muscarinic M1 receptor): 25%; EC50 (muscarinic M2 receptor): 251 nM; Emax (muscarinic M2 receptor): 67%
Clc1ccc2c(c1)C(N1CCNCC1)=Nc1ccccc1N2 [2-Chloro-11-(piperazin-1-yl)-5H-dibenzo[b,e][1,4]diazepine]	-5	–	8	–	–
Clc1ccc2c(c1)Nc1ccccc1N=C2N1CCNCC1 [3-Chloro-11-(piperazin-1-yl)-5H-dibenzo[b,e][1,4]diazepine]	16	–	27	2000	–
Clc1ccc2c(c1)C(N1CCNCC1)=Nc1cc(Br)ccc1N2 [8-Bromo-2-chloro-11-(piperazin-1-yl)-5H-dibenzo[b,e][1,4]diazepine]	10	–	29	3160	–
Clc1cc2c(cc1Cl)Nc1ccccc1C(N1CCNCC1)=N2 [7,8-Dichloro-11-(piperazin-1-yl)-5H-dibenzo[b,e][1,4]diazepine]	32	79.4	8	–	–
Fc1ccc2c(c1)N=C(N1CCNCC1)c1ccccc1C2 [3-Fluoro-6-piperazin-1-yl-11H-dibenzo[b,e]azepine]	23	–	55	794	–
c1ccc2c(c1)N=C(N1CCNCC1)c1ccccc1N2 [11-(piperazin-1-yl)-5H-dibenzo[b,e][1,4]diazepine]	38	794	70	2510	–
Clc1ccc2c(c1)N=C(c1ccncc1)c1ccccc1N2 [8-Chloro-11-(pyridin-4-yl)-5H-dibenzo[b,e][1,4]diazepine]	6	–	6	–	–
Cc1ccc2c(c1)N=C(N1CCNCC1)c1ccccc1N2 [8-Methyl-11-(piperazin-1-yl)-5H-dibenzo[b,e][1,4]diazepine]	49	158	98	1000	–
CCN(CC)CCNC1=Nc2cc(Cl)ccc2Nc2ccccc21 [N′-(8-Chloro-5H-dibenzo[b,e][1,4]diazepine-11-yl)-N,N-diethyl-ethane-1,2-diamine]	6	–	9	–	–
c1ccc2c(c1)N=C(N1CCCNCC1)c1ccccc1N2 [11-[1,4]Diazepam-1-yl-5H-dibenzo[b,e][1,4]diazepine]	–	–	–	–	Emax (muscarinic M1 receptor): 18%; Emax (muscarinic M2 receptor): 25%
Clc1ccc2c(c1)N=C(N1CCNCC1)c1cccnc1N2 [8-Chloro-5-piperazin-1-yl-1H-benzo[b]pyrido[2,3-e][1,4]diazepine]	–	3160	–	–	Emax (muscarinic M1 receptor): 51%; Emax (muscarinic M2 receptor): 7%
O=S(=O)(Oc1ccc2c(c1)C(N1CCNCC1)=Nc1ccccc1O2)C(F)(F)F [2-(Trifluoromethanesulfonyloxy)-11-(piperazin-1-yl)-5H-dibenzo[b,e][1,4]oxazepine]	-11	–	4	–	–
Cc1ccc2c(c1)C(N1CCNCC1)=Nc1cc(C(F)(F)F)ccc1N2 [2-Methyl-11-(piperazin-1-yl)-8-trifluoromethyl-5H-dibenzo[b,e][1,4]diazepine]	15	–	14	–	–
Clc1ccc2c(c1)N=C(N1CCNCC1)c1cc(Cl)ccc1N2 [2,8-Dichloro-11-(piperazin-1-yl)-5H-dibenzo[b,e][1,4]diazepine]	1	–	24	–	–
CN1CCCN(C2=Nc3cc(Cl)ccc3Nc3ccccc32)CC1 [8-Chloro-11-(4-methyl-[1,4]diazepam-1-yl)-5H-dibenzo[b,e][1,4]diazepine]	–	–	–	–	Emax (muscarinic M1 receptor): 18%; EC50 (muscarinic M2 receptor): 1260 nM; Emax (muscarinic M2 receptor): 50%
Clc1ccc2c(c1)N=C(C1CCNCC1)c1ccccc1N2 [8-Chloro-11-(piperidin-4-yl)-5H-dibenzo[b,e][1,4]diazepine]	57	631	31	2000	–
Clc1ccc2c(c1)N=C(N1CCNCC1)c1cc(Br)ccc1N2 [2-Bromo-8-chloro-11-(piperazin-1-yl)-5H-dibenzo[b,e][1,4]diazepine]	6	–	19	–	–
Brc1ccc2c(c1)N=C(N1CCNCC1)CCN2 [7-Bromo-4-(piperazin-1-yl)-2,3-dihydro-1H-benzo[b][1,4]diazepine]	56	2510	3	–	–
Cc1ccc2c(c1)C(N1CCNCC1)=Nc1cc(Cl)ccc1N2 [8-Chloro-2-methyl-11-(piperazin-1-yl)-5H-dibenzo[b,e][1,4]diazepine]	14	–	28	1260	–
